From patent US8039670B2, “Analogs of alpha galactosyceramide and uses thereof” (Ludwig Institute for Cancer Research, priority 2005, dated 2011)
pKd: −log10 of the molar value.

Legend:
[1] = tested on: Melan A-specific CD8^+ T cells; assay: Expansion of Melan-A26-35 specific CD8+ T cells in human PBMC/PBL cultures (tetramer); format: cell-based; conditions: for stimulation of antigen specific CTL responses in vitro: Example B, day 10, compared with αGal-Cer; for expansion of Melan-A26-35 specific T cells: human PBMC/PBL, FIG. 8
Description: Flow cytometry of day 10-15 cultures of PBMCs co-cultured with autologous irradiated APCs, pulsed with Melan-A26-35 peptide were stained with the tetrameter and anti-CD8^+-FITC.
In these experiments, T cell expansion was measured, by pulsing human DCs from PBLs with 100 nM of the known, immunogenic peptide MelanA26-35, […]. The peptide was added to the DCs together with syngeneic PBLs from the same donor. To detail these experiments more fully, samples of DCs were irradiated with 3000 rads followed by a 3 hour pulse with the peptide, in serum free medium.
The cells were then washed thoroughly and incubated with autologous, PBLs, at a 1:10 ratio, in RPMI 1640/5% human serum. Recombinant human IL-2 was added at 10 U/ml from day 4 to day 7. At day 10, following the addition of the PBLs, cells were analyzed. Cultured cells were stained with anti-CD8 and A2/MelanA25-35 tetramer. The percentage of MelanA specific CD8 T cells out of total CD8 positive cells was measured by FACS analysis.

p40 form of IL-12 = assay: Example A: IL-12 p40 ELISA as indication of DC stimulation; format: cell-based, human
[2] = tested on: human monocyte derived DCs; assay: Example A: DC maturation markers in human monocyte derived DC with NKT cells (FACS); format: cell-based; conditions: 100 ng/ml, 36 hours, 10 DC/NKT cell
Description: The methodology of Salio, et al., J. Immunol., 167:1188-1197 (2001), incorporated by reference, was followed. In brief, 2×105 human monocyte derived DCs were pulsed with 100 ng/ml of one of Compounds 2, 3, αGal-Cer, or vehicle solution, as a control. For DC pulsing, each of arabinitol ceramide (Compound 1), threitol ceramide (Compound 3), glycerol ceramide (Compound 2) and αGal-Cer was solubilized in vehicle solution (0.5% Tween 20/PBS), and added to the medium of the DC cultures. […] After 36 hours, supernatant was removed from cultures and analyzed for the presence of known DC maturation markers CD83, CD80, CD86, CD25, and CD38, all of which were analyzed via FACS, using well known methods.

E.G7-OVA tumour cells = assay: Prophylactic challenge with E.G7-OVA tumour cells after co-injection with OVA; format: in vivo, C57BL/6 mice; conditions: injected with OVA, challenge 7 days later with 1×10^6 E.G7-OVA s.c.
Description: (A) C57BL/6 mice were co-injected with 1 μg α-GalCer or analog and 800 μg OVA. 6 days later blood samples taken from the tail vein were stained directly ex vivo with fluorescent […]-K^b tetramers and an anti-CD8 antibody and analyzed by flow cytometry. Data are shown as tetramer positive cells as a percentage of CD8^+ cells. (B) 7 days after injection, the mice were challenged in a prophylactic setting with 1×10^6 E.G7-OVA tumour cells s.c. and the size of the tumour monitored over subsequent days.

human DC = assay: DC maturation in co-culture of human DC and iNKT cells (flow cytometry CD83, CD86, CD38); format: cell-based; conditions: for DC maturation (upregulation of CD83, CD86 and CD38): human DC with iNKT cell clone, 24 hours; for concentration inducing maximal DC maturation: titration on DC, 48 h
Description: Different analogs of α-GalCer as indicated or LPS were added to co-cultures of human DC and iNKT cells. (A) Maturation of the DC was assessed after 40 h, gating on CD11c positive cells. Histograms indicate the CD83 and CD86 profiles of DC from different treatments; the percentages indicate the percentage of CD83hi mature DC and the numbers in parenthesis, the mean fluorescence intensity of the population contained within the labeled gate. DC and iNKT cells were co-cultured in the presence of different analogs of α-GalCer for 24 hours. Supernatants were analyzed using ELISA for the presence of (B) IL-12p40 released by the DC and (C) IFN-γ from the iNKT cells. […] Cells were co-cultured in the presence of the indicated concentration of analog and the percentages of DC with increased CD83/CD80 are shown. […] Viability of α-GalCer or analog-pulsed DC was assessed after 40 h co-culture in the presence of iNKT cells by flow cytometry. Cells were stained with propidium iodide and the percentage of live CD11c gated cells remaining in the culture are shown.
Human monocyte-derived DC were pulsed with 150 ng of different inositol analogs and co-cultured with iNKT cells for 24 h. […] Numbers indicate the mean fluorescence intensity of the histogram gated on CD11c^+ cells.
Immature human DC were cultured in the presence of a human iNKT cell clone with or without analogs or vehicle at different concentrations.
To compare the functions of high affinity α-GalCer, intermediate affinity threitolceramide with the known, low affinity analog OCH, the three compounds were titrated onto DC and used to present to iNKT cells. Maturation of DC and DC viability were examined after 48 h.

[3] = molecular target: T1, human invariant Vα24^+/Vβ11^+ TCR binding to hCD1d-lipid complex (Homo sapiens, UniProt P15813); assay: Surface plasmon resonance (Biacore) of soluble iNKT TCR binding to hCD1d monomers loaded with analogs; conditions: for pKd: equilibrium binding, read-out: Kd of the TCR binding to the monomer
T1 construct: soluble human CD1d molecules; made in house
Description: Affinity and kinetics of iNKT TCR binding to hCD1d complexed with α-GalCer or OCH. Increasing concentrations from 0.4 μM to 194 μM (two-fold dilution) of iNKT TCR were injected for 5 seconds over the indicated hCD1d-GSL complexes. The binding responses of 5 concentrations are shown superimposed. The panels on the right show binding response at equilibrium.
The affinities of a soluble NKT cell TCR for human CD1d molecules refolded with different analogs of α-GalCer were measured. Equilibrium binding and kinetic measurements respectively were made for α-GalCer (A and B), threitolceramide (C and D), 4S-threitolceramide (E and F), 4R-threitolceramide (G and H). The Kd values (μM) were calculated from equilibrium binding. The Kon values shown were calculated from Koff and Kd.
We then assessed whether the length of the acyl and sphingosine chains could affect the affinity of iNKT TCR binding to glycolipid-CD1d complex. We refolded Vα24 and Vβ11 chains of the iNKT TCR as previously described (Gadola, Koch et al, J Exp Med, 2006, 203; 699-710) and used the purified and refolded iNKT TCR in surface plasmon resonance studies against immobilized biotinylated CD1d monomers loaded with either α-GalCer or OCH.
To characterize the affinity of analogs of α-GalCer, biotinylated hCD1d monomers were generated using previously described protocols (Karadimitris, Gadola et al, Proc Natl Acad Sci USA, 2001, 98; 3294-8) bound to the different analogs. Surface plasmon resonance (Biacore) analysis was performed using a soluble disulphide-linked human invariant Vα24^+/Vβ11^+ TCR (Gadola, Koch et al, J Exp Med, 2006, 203; 699-710) to measure the equilibrium dissociation constants (Kd) of binding of the TCR to different monomers (FIG. 3).

SMILES	stimulation of antigen specific CTL responses in vitro [1]	IL-12 potency, fold less potent than Compound 3 (p40 form of IL-12)	induction of DC maturation markers (CD83, CD80, CD86, CD25, CD38) [2]	expansion of Melan-A26-35 specific T cells ([1]; listed as threitol-ceramide)	expansion of Melan-A26-35 specific T cells ([1]; listed as threitolceramide)	tumour growth (E.G7-OVA tumour cells)	IL-12 potency relative to αGal-Cer (p40 form of IL-12)	DC maturation (upregulation of CD83, CD86 and CD38) (human DC)	concentration inducing maximal DC maturation (human DC) [ng/mL]	pKd [3]	rate of dissociation (Koff) between the TCR and the monomer ([3]; kinetic measurement) [s⁻¹]	koff ([3]; kinetic measurement, read-out: rate of dissociation (Koff) between the TCR and the monomer) [s⁻¹]
CCCCCCCCCCCCCCCCCCCCCCCCCC(=O)N[C@@H](COC[C@@H](O)CO)[C@H](O)[C@H](O)CCCCCCCCCCCCCC [Compound 2, Glycerol Ceramide]	more potent stimulators of antigen specific CTL responses, in vitro, than αGal-Cer	approximately 1000 fold	DC maturation markers are induced	–	–	–	–	–	–	–	–	–
CCCCCCCCCCCCCCCCCCCCCCCCCC(=O)N[C@@H](COC[C@H](O)[C@@H](O)CO)[C@H](O)[C@H](O)CCCCCCCCCCCCCC [Compound 3, Threitol Ceramide]	more potent stimulators of antigen specific CTL responses, in vitro, than αGal-Cer	–	DC maturation markers are induced	superior than glycerol-ceramide	at least as effective as with DC pulsed with α-GalCer	little or no tumour growth	approximately 50%	more potent than glycerolceramide and arabinitolceramide	67	5.24	1.04	–
CCCCCCCCCCCCCCCCCCCCCCCCCC(=O)N[C@@H](CO[C@H]1OC(CO)[C@H](O)C(O)C1O)[C@H](O)[C@H](O)CCCCCCCCCCCCCC (stereo partly drawn) [α-GalCer, α galactosylceramide, reference compound]	–	–	–	–	–	little or no tumour growth	–	significant upregulation of all the markers examined	0.8	5.89	–	0.37
